Common to all, as to format: biochemical
Assay [1] concerns the target ValD (Streptomyces hygroscopicus, UniProt Q1L2K7, E366A). Kind of assay: TLC and 1H NMR of epimerization, relative activity. Particulars: TLC after 30 min.
The target of assay [2] is ValD (Streptomyces hygroscopicus, UniProt Q1L2K7, E107A). Kind of assay: TLC of epimerization, relative activity. To be noted: TLC after 30 min.
The target of a further assay is N-terminal half of ValD (Streptomyces hygroscopicus, UniProt Q1L2K7). As to the kind of experiment: in vitro epimerase assay.
Assay [3] addresses ValD (Streptomyces hygroscopicus, UniProt Q1L2K7, E183A). As to the kind of experiment: TLC and 1H NMR of epimerization, relative activity. To be noted: TLC after 30 min.
The target of assay [4] is ValD (Streptomyces hygroscopicus, UniProt Q1L2K7, H315N). Kind of assay: TLC of epimerization, relative activity. Particulars: TLC after 30 min.
A further assay addresses C-terminal half of ValD (Streptomyces hygroscopicus, UniProt Q1L2K7). Kind of assay: in vitro epimerase assay.
The target in assay [5] is ValD (Streptomyces hygroscopicus, UniProt Q1L2K7, H130N). Kind of assay: TLC of epimerization, relative activity. Particulars: TLC after 30 min.
The target in assay [6] is ValD (Streptomyces hygroscopicus, UniProt Q1L2K7, H229N). As to the kind of experiment: TLC and 1H NMR of epimerization, relative activity. Particulars: TLC after 30 min.
Assay [7] concerns the target ValD (Streptomyces hygroscopicus, UniProt Q1L2K7, E291A). As to the kind of experiment: TLC of epimerization, relative activity. Particulars: TLC after 30 min.
For assay [8], the target named is ValD (Streptomyces hygroscopicus, UniProt Q1L2K7, H44N). As to the kind of experiment: TLC and 1H NMR of epimerization, relative activity. To be noted: TLC after 30 min.

Regarding `O=C1C[C@@](O)(CO)[C@@H](O)[C@H](O)[C@@H]1O` [2-epi-5-epi-valiolone], the “TLC and 1H NMR of epimerization, relative activity” value was “H44N, E107A, and E366A proteins had significantly reduced activities” at ValD [1]; “H130N, E183A, H229N, and E291A proteins had a comparable epimerase activity” at ValD [3]; “H130N, E183A, H229N, and E291A proteins had a comparable epimerase activity” at ValD [6]; “H44N, E107A, and E366A proteins had significantly reduced activities” on ValD [8]. Besides, the “TLC of epimerization, relative activity” value at ValD [2] was “H44N, E107A, and E366A proteins had significantly reduced activities”; on ValD [4], “Mutation at H315 appeared to have moderate effect on the epimerase activity”; on ValD [5], “H130N, E183A, H229N, and E291A proteins had a comparable epimerase activity”; at ValD [7], “H130N, E183A, H229N, and E291A proteins had a comparable epimerase activity”. The “in vitro epimerase assay (data not shown)” value at N-terminal half of ValD and at C-terminal half of ValD was “truncated proteins have a significantly reduced capacity to convert 2-epi-5-epi-valiolone to 5-epi-valiolone (data not shown)” throughout.

The values are drawn from PMC2737586 (Chemistry & biology, 2009).
